From patent US20210113492A1, “METHOD FOR INHIBITING PROLIFERATION AND METASTASIS OF CANCER CELLS BY USING NAPHTHOQUINONE DERIVATIVE” (National Tsing Hua University, priority 2019, published 2021) come the findings set out here.

In assay [1] the test system is human non-small cell lung carcinoma cells (H1299). As to the kind of experiment: Mitochondrial morphology and distribution by immunofluorescence staining, H1299. It is filed as cell-based. The settings on record: 1 μM or 2.5 μM, 24 hours, anti-TOM20 staining. Here is the method: The effects of isoplumbagin on mitochondrial morphology and distribution of OC3-IV2, U87, H1299 and PC3 cell lines were measured by immunofluorescence staining After OC3-IV2, U87, H1299, and PC3 cells were treated with DMSO, 1 μM, or 2.5 μM isoplumbagin for 24 hours, cells were fixed by 4% (v/v) paraformaldehyde and permeabilized by 0.1% (v/v) Triton X-100. Cells were incubated in blocking buffer containing 1% bovine serum albumin. After blocking, cells were incubated overnight with indicated primary antibodies against TOM20 (a mitochondria marker, sc-11415, Santa Cruz), and then incubated with Alexa Fluor 488-conjugated secondary antibodies (A11001, Invitrogen). Nucleus was stained with DAPI, actin was stained with rhodamine phalloidin (A12379, Invitrogen) and cells were mounted using Prolong Gold reagent (P36930, Invitrogen). 63 images were taken by LSM800 confocal microscopes (Zeiss).
FIGS. 5A-5D show the effect of isoplumbagin on mitochondrial morphogenesis and distribution of oral squamous cell carcinoma cells (OC3-IV2), human primary glioblastoma cells (U87), human non-small cell lung carcinoma cells (H1299) and human prostate cancer cells (PC3). Cells treated with either solvent control (DMSO) or isoplumbagin were determined by immunofluorescence staining using anti-TOM20 (mitochondria, green) antibody, rhodamine phalloidin (actin, red) and DAPI (nucleus, blue). […]

Assay [2] concerns human prostate cancer cells (PC3). As to the kind of experiment: Boyden chamber invasion assay, PC3. Type of assay: cell-based. The settings on record: 2.5, 5 and 10 μM, 24 h, dose dependency (FIG. 2D). Here is the method: Cells were harvested by […] and resuspended in a serum-free medium with 0.1% BSA. Then, […] of cell suspension (2×10^5 cells) was seeded into the upper insert of SPLInsert with Polyethylene terephthalate (PET) membrane (pore size: 8.0 μm) (SPL Lifesciences, Korea) pre-coated with matrigel (BD Biosciences, San Jose, Calif.). The bottom well of 24-well plate of SPLInsert was filled with cell medium containing 10% FBS with different concentrations of isoplumbagin (5, 7.5 and 10 μM, Experimental group of oral squamous cell carcinoma cells (OC3-IV2); 2.5, 5 and 10 μM, Experimental groups of human primary glioblastoma cells (U87), human non-small cell lung carcinoma cells (H1299), human prostate cancer cells (PC3) and human cervical cancer cells (Hela)) or without isoplumbagin (DMSO added). […] Number of cells was counted using Image J. Relative invasion ability was calculated as cell number per area.
FIGS. 2A-2E show the inhibitory effect of different doses of isoplumbagin on invasion for oral squamous cell carcinoma cells (OC3-IV2), human primary glioblastoma cells (U87), human non-small cell lung carcinoma cells (H1299), prostate cancer cells (PC3) and cervical cancer cells (Hela) assessed with the Boyden chamber assays. *Compared with solvent control (DMSO). […]

On to `CC1=CC(=O)c2cccc(O)c2C1=O` [isoplumbagin, 5-hydroxy-3-methyl-1,4-naphthoquinone], for which, in assay [1], the “mitochondrial morphogenesis and distribution” value is “can alter the mitochondrial morphogenesis and distribution”. The “cancer cells migrating through the membrane (invasion)” value in assay [2] was “decrease significantly”.
